Source: US20130142830A1, “Tolerogenic Plasmacytoid Dendritic Cells Co-Expressing Cd8-Alpha And Cd8-Beta And Methods Of Inducing The Differentiation Of Regulatory T Cells Using Same” (UNIVERSITY OF SOUTHERN CALIFORNIA, priority 2011, published 2013)

Key:
[1] = system: naive OVA-specific CD4+ T cells; test: In vitro co-culture of pDC subsets with naive OVA-specific CD4+ T cells, Foxp3 and IL-10 by flow cytometry; type: cell-based, mouse
Experimental: (a) Flow cytometry of intracellular expression of Foxp3 in CD4^+ T cells cultured with CD8α^− CD8β^− pDCs, CD8α^+ CD8β^− or CD8α^+ CD8β^+ pDCs. Sorted CD8α^− CD8β^−, CD8α^+ CD8β^− or CD8α^+ CD8β^+ pDCs were preincubated 12 hours with either medium or Galectin-3 (10 μg/ml). Cells were then washed and co-cultured with OVA-specific CD4^+ T cells at a 1:10 ratio (pDC:T CD4^+) for 5 days in presence of either OVA323-339 (1 μg/ml) and/or TGF-β (1 ng/ml) as indicated. Cells were subsequently stained with CD3, CD4 and CD25 antibodies fixed, permeabilized and stained with an anti-Foxp3 antibody before flow cytometry analysis. […]
(a) Gene expression of Aldhla1 Aldhla2, and Aldhla3 was assessed by real-time PCR in CD8α^−β^−, CD8α^+β^−, and CD8α^+β^+ pDCs from peripheral lymph nodes or in CD103^− and CD103^+ DCs from mesenteric lymph nodes of Fms-like tyrosine kinase 3-ligand (Flt3-L)-treated mice. […] P-values were calculated with Student's t-test. *P-value <0.05 (CD8α^+β^− pDC and CD8α^+β^+ pDC compared to CD8α^−β^−). ^#P-value <0.05 (CD103^+ cDC compared to CD103^− cDC). […] Cells were subsequently stained with anti-CD11c, anti-mPDCA1, anti-CD8α, and CD8αβ antibodies, and analyzed by flow cytometry to detect RALDH activity. […] Foxp3 expression was analyzed among CD3^+ CD4^+ CD25^+ cells; dot plots are representative of three independent experiments. […]

pDCs = test: TLR7/TLR9 stimulation of pDC subsets (R848, CpG): co-stimulatory molecules, CD8 expression, IFN-α and IL-10 ELISA; type: cell-based, mouse; details: R848 10 μg/ml or CpG 10 μM, 18 hours
Experimental: (a) Plasmacytoid DCs were isolated by magnetic separation from lymph nodes of Flt3L-treated mice. The surface expression of the costimulation molecules CD80 and CD86 was assessed on CD8α^− CD8β^− pDCs, CD8α^+ CD8β^− pDCs and CD8α^+ CD8β^+ pDCs subtypes after 18 hours of stimulation with R848 (10 μg/ml) or CpG (10 μM). Data are representative of three similar experiments. Shaded histograms represent isotype control antibodies; dashed lines, specific staining of untreated cells; solid black lines, specific staining of CpG treated cells and solid grey lines, specific staining of R848 treated cells. […] Cells were then washed and stained with CD8α and CD8β^− antibodies, APC fluorescence was analyzed by flow cytometry in the CD8α^− CD8β^− pDCs, CD8α^+ CD8β^− pDCs or CD8α^+ CD8β^+ pDCs subpopulations. […] Data are average (mean fluorescence intensity (MFI) at 37° C.)−(MFI at 4° C.)±SEM of three separate experiments. […] The amount of radioactivity related to the number of cells was evaluated in a scintillation counter. […]
The main function of DCs is to prime naïve T cells by presenting antigen and providing additional signals through co-stimulatory molecules and production of cytokines. To address whether the populations of pDCs described herein differ in these functions, we stimulated them with TLR ligands and assessed the expression of co-stimulatory molecules along with the cytokine production. […]

DCs = test: In vivo expansion of DCs by Flt3L-expressing tumor cells; parameters: species or system mouse; details: Flt3L treatment of BALB/c mice
Experimental: To test whether an in vivo expansion of the population of DCs affects the expression of CD8α or CD8β at the surface of pDCs, tumor cells expressing Flt3L were transferred into BALB/c mice. Flt3L acts on hematopoietic stem cells and controls their differentiation into DCs, this treatment expands the population of DCs by 15 to 20 fold after 14 days without activating the cells. […] The expression of CD8α and CD8β was assessed simultaneously on pDCs (CD11c^+ BST2^+ cells) and on conventional DCs (cDCs, CD11c^+ BST2^− cells). At the surface of cDCs, only CD8α expression was detected (FIG. 2a). […] Accordingly, with the surface phenotype, CD8α gene expression was detected in CD8α^+β^− pDCs while both CD8α and CD8β genes were overexpressed in the CD8α^+β^+ subset (FIG. 2b). As expected CD8β gene expression was never detected in cDCs (FIG. 2b). […] Our data from B2m knockout mice confirmed the presence of CD8α or CD8β pDC repertoire, similar to the level detected in the wild type mice (FIG. 2c). To further assess the expression of CD8α or CD8β at mRNA level, we performed real time quantitative PCR on the sorted subpopulation of pDCs from B2m knockout mice and confirmed the results obtained in FIG. 2c at the mRNA expression level (FIG. 2d). […]

Molecule: CN1c2cc3c(cc2N=C(c2ccc(C(=O)O)cc2)c2ccc4ccccc4c21)C(C)(C)CCC3(C)C [LE540]
- effect of RALDH inhibitor on conversion of naive CD4+ T cells by CD8α+β+ and CD8α+β− pDCs ([1]; LE540 1 μM with TGF-β): completely blocked the conversion of naïve CD4^+ T cells

Molecule: Galectin-3
- effect of Galectin-3 pre-incubation of pDCs on conversion of naive CD4+ T cells into Foxp3-expressing cells ([1]; Galectin-3 10 μg/ml, 12 hours pre-incubation, TGF-β present): boost the capacity of pDCs to convert naïve CD4^+ T cells into Foxp3-expressing cells

Molecule: CCOCc1nc2c(N)nc3ccccc3c2n1CC(C)(C)O [R848]
- expression of CD8α and CD8β on pDCs following TLR stimulation (pDCs): the expression of CD8α and CD8β decreases

B1: Flt3L: delivered by tumor cells expressing Flt3L; controls differentiation of hematopoietic stem cells into DCs (protein, UniProt P49771 27-235, looked up)
Fms-related tyrosine kinase 3 …: TQDCSFQHSPISSDFAVKIRELSDYLLQDYPVTVASNLQDEELCGGLWRLVLAQRWMERLKTVAGSKMQGLLERVNTEIHFVTKCAFQPPPSCLRFVQTNISRLLQETSEQLVALKPWITRQNFSRCLELQCQPDSSTLPPPWSPRPLEATAPTAPQPPLLLLLLLPVGLLLLAAAWCLHWQRTRRRTPRPGEQVPPVPSPQDLLLVEH
- level of expression of CD8α and CD8β on pDCs (DCs): does not significantly affect
